In the supplement of paper PMC5579334:

What was measured:
HS-PSS [1] = assay: % inhibition of CellTiter-Glo viability at highest tested concentration (72 h), relative to DMSO and benzethonium chloride controls; higher = more inhibition
Procedure, shortened: (§1)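 Viability was scored by CellTiter-Glo ATP luminescence, scaled from vehicle to positive-control wells, with duplicates averaged where present. The cells, MPNST lines and primary human Schwann cells at 750–1000 per well, sat 72 h at 37 °C, 5% CO2, in 384-well plates preprinted with each compound at five concentrations in 10-fold steps. Four-parameter logistic fits were run on the data. These fits give drug sensitivity score and relative IC50 censored at the top concentration, and percent inhibition is reported at the top concentration.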

YST-1 [2] = assay: as above
Procedure, shortened: as §1

HS-Sch-2 [3] = assay: as above
Procedure, shortened: as §1

HS-PSS [4] = assay: drug sensitivity score (DSS, CellTox-Green cytotoxicity, 72 h) (DSS (dimensionless)); higher = more cytotoxic; extreme values may be limits of the assay
Procedure, shortened: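 MPNST cell lines and primary human Schwann cells were incubated 72 h at 37 °C in 384-well plates holding five 10-fold compound dilutions. CellTox-Green was added before seeding at a final 1:1000 dilution and reported fluorescence from DNA released by disrupted cells. Signals were scaled to vehicle and positive-control wells, and cultures failing plate quality control were dropped. Drug sensitivity score and relative IC50 come from four-parameter logistic fits, with IC50 censored at the top concentration.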

HS-PSS [5] = assay: drug sensitivity score (DSS, CellTiter-Glo viability, 72 h) (DSS (dimensionless)); higher = more sensitive; extreme values may be limits of the assay
Procedure, shortened: as §1

YST-1 [6] = assay: as above
Procedure, shortened: as §1

HS-Sch-2 [7] = assay: as above
Procedure, shortened: as §1

| SMILES | % inhibition (HS-PSS [1]) [%] | % inhibition (YST-1 [2]) [%] | % inhibition (HS-Sch-2 [3]) [%] | drug sensitivity score (HS-PSS [4]) | drug sensitivity score (HS-PSS [5]) | drug sensitivity score (YST-1 [6]) | drug sensitivity score (HS-Sch-2 [7]) |
| --- | --- | --- | --- | --- | --- | --- | --- |
| Cc1cnc(-c2ccccc2C(C)C)nc1NCc1ccc(-n2ccnn2)cc1 [ML323] (max concentration tested 10000 nM) | 42 | 18.2 | 39.9 | 0 | 3.56 | 0.66 | 3.67 |
| O=C(/C=C\n1cnc(-c2cc(C(F)(F)F)cc(C(F)(F)F)c2)n1)NNc1ccccn1 [Verdinexor] (max concentration tested 1000 nM) | 60 | 88.9 | 97 | 0.01 | 5.78 | 8.71 | 9.76 |
| CCNC(=O)c1noc(-c2cc(C(C)C)c(O)cc2O)c1-c1ccc(CN2CCOCC2)cc1 [Luminespib] (max concentration tested 1000 nM) | 82.2 | 79.6 | 98.9 | 3.7 | 14 | 19.5 | 23.5 |
| CNC(=O)c1ccccc1Nc1cc(Nc2ccc(N3CCOCC3)cc2OC)ncc1C(F)(F)F [VS-4718] (max concentration tested 10000 nM) | 68.6 | 45.2 | 50.4 | 0.03 | 3.23 | 4.99 | 3.18 |
| C[C@H]1Oc2cc(cnc2N)-c2c(nn(C)c2C#N)CN(C)C(=O)c2ccc(F)cc21 (max concentration tested 1000 nM) | 53.9 | 3.35 | 14.9 | 0 | 12.3 | 0 | 0.53 |
| C[C@H](Nc1ncnc2nc[nH]c12)c1cc2cccc(Cl)c2c(=O)n1-c1ccccc1 [Duvelisib] (max concentration tested 500 nM) | -0.01 | 19.5 | 13.6 | 0.21 | 0 | 0.82 | 0.22 |
| O=C(c1ccc(F)c(F)c1Nc1ccc(I)cc1F)N1CC(O)([C@@H]2CCCCN2)C1 [Cobimetinib] (max concentration tested 1000 nM) | 49.3 | -5.92 | 69.5 | 0.01 | 4.46 | 0 | 4.02 |
| CN1CCN(c2cc(C(=O)Nc3ccc4c(c3)-c3c(c(C(N)=O)nn3-c3ccc(F)cc3)CC4)c(Cl)cn2)CC1 [PHA 408] (max concentration tested 10000 nM) | 101 | 99.9 | 99.8 | 4.95 | 7.02 | 5.73 | 5.4 |
| NS(=O)(=O)NCCNc1nonc1/C(=N/O)Nc1ccc(F)c(Br)c1 [Epacadostat] (max concentration tested 10000 nM) | 6.08 | 12.5 | 13.3 | 0 | 0 | 0 | 0.29 |
| CC(C)Oc1ccc(C(=O)N[C@H](CNC(=O)CN(C)C)Cc2ccc(-c3cn4cccc([C@H](C)O)c4n3)cc2)cc1Cl (max concentration tested 10000 nM) | 66.7 | 62 | 95.2 | 1.48 | 8.56 | 19.5 | 24.1 |
| N#CC1(c2ccc(NC(=O)c3cccnc3NCc3ccncc3)cc2)CCCC1 [Apatinib] (max concentration tested 10000 nM) | 11.6 | 18.9 | -2.67 | 0 | 0 | 1.19 | 0 |
| CC(=O)c1cnc2ccc(-c3cc(Cl)c(O)c(Cl)c3)nc2c1N[C@H]1CC[C@H](CN(C)C)CC1 [OTSSP167] (max concentration tested 1000 nM) | 83.1 | 100 | 101 | 0.29 | 4.33 | 23.8 | 18.5 |
| COc1ccc2c(OCc3nnc4ccc(-c5ccccc5)nn34)ccnc2c1 [AMG-208] (max concentration tested 2500 nM) | 9.98 | -2.81 | 7.53 | 0 | 0.98 | 0 | 0 |
| Cc1csc(-c2nnc(Nc3ccc(Oc4ncccc4-c4ccnc(N)n4)cc3)c3ccccc23)c1 [AMG-900] (max concentration tested 1000 nM) | 19.6 | 29.8 | 30 | 0 | 0.8 | 9.1 | 1.27 |
| CC(C)Oc1cc(Nc2nc(N[C@@H](C)c3ccc(F)cn3)ncc2Cl)n[nH]1 [AZ-23] (max concentration tested 1000 nM) | 12.4 | 26.5 | 21.1 | 0 | 0.29 | 1.96 | 1.29 |
| C/C=C1\NC(=O)[C@H]2CSSCC/C=C/[C@H](CC(=O)N[C@H](C(C)C)C(=O)N2)OC(=O)[C@H](C(C)C)NC1=O [Romidepsin] (max concentration tested 1000 nM) | 95.4 | 98.5 | 100 | 3.93 | 5.59 | 37.8 | 33 |
